Series [1] has as its target T1, human mGluR5a receptor (Homo sapiens, UniProt P41594).
T1 construct: host or cells: HEK293A (monoclones H10H and H12H)
Description: Functional Assay 3: as Functional Assay 2 but clone H12H. Type of series: cell-based. As to conditions: for EC50: glutamate EC20; for Emax: maximum average response at a single concentration. The protocol: HEK cells transfected with the human mGluR5a receptor (H10H cell line) were plated at 15.000 cells/well in clear-bottomed poly-D-lysine-coated assay plates (BD Falcon) in glutamate-glutamine-free growth medium and incubated overnight at 37° C. and 5% CO2. The following day, the growth medium was removed and the cells were washed with assay buffer containing 1× Hank's balanced salt solution (Invitrogen, Carlsbad, Calif.), 20 mM HEPES, 2.5 mM probenecid, pH 7.4 and left with 20 μL of this reagent. Following this step, the cells were loaded with calcium indicator dye, fluo-4 AM, to a final concentration of 2 μM and incubated for 40-45 min at 37° C. The dye solution was removed and replaced with assay buffer. Cell plates were held for 10-15 min at room temperature and were then loaded into the Functional Drug Screening System 6000 (FDSS 6000, Hamamatsu, Japan).
After establishment of a fluorescence baseline for about 3 seconds, the compounds of the present invention were added to the cells, and the response in cells was measured. 2.3 minutes later an EC20 concentration of the mGluR5 receptor agonist glutamate was added to the cells, and the response of the cells was measured for about 1.7 minutes. All test compounds were dissolved and diluted to a concentration of 10 mM in 100% DMSO and then serially diluted into assay buffer for a 2× stock solution in 0.6% DMSO; stock compounds were then added to the assay for a final DMSO concentration of 0.3% after the first addition to the assay well. Calcium fluorescence measures were recorded as fold over basal fluorescence; raw data was then normalized to the maximal response to glutamate. Potentiation of the agonist response of the mGluR5 receptor in the present invention was observed as an increase in response to submaximal concentrations of glutamate in the presence of compound compared to the response to glutamate in the absence of compound.
The concentration-response curves of compounds of the present invention, obtained in the presence of EC20 of mGluR5 receptor agonist glutamate to determine positive allosteric modulation, were generated using Microsoft Excel with IDBS XLfit add-ins. The raw data file containing all time points was used as the data source in the analysis template. This was saved by the FDSS as a tab-delimitted text file. Data were normalized using a static ratio function (F/F0) for each measurement of the total 350 values per well divided by each well's initial value. Data was then reduced as to peak amplitudes (Max−Initial Min) using a time range that starts approximately 1 second after the glutamate EC20 addition and continues for approximately 40 seconds. This is sufficient time to capture the peak amplitude of the cellular calcium response. Individual amplitudes were expressed as % effect by multiplying each amplitude by 100 and then dividing the product by the mean of the amplitudes derived from the glutamate ECMax-treated wells. pEC50 values for test compounds were generated by fitting the normalized values versus the log of the test compound concentration (in mol/L) using a 4 parameter logistic equation where none of the parameters were fixed. Each of the three values collected at each concentration of test compound were weighted evenly. Individual values falling outside the 95% prediction limits of the curve fit were automatically excluded from the fit. […] These two methods are in good agreement for curves with a clear plateau at the high concentration range. […] For consistency purposes across the range of potencies observed, all Emax values reported in this application are calculated using the maximum average response at a single concentration.
Functional Assay 3 was performed under the same conditions as Functional Assay 2, except that clone H12H was used instead of clone H10H.
The clones that were used in the primary functional assay gave undiscernable differences in this assay.

The target in series [2] is T1, human mGluR5a receptor. The series can be described thus: Functional Assay 2: Ca2+ mobilization, HEK cells with human mGluR5a receptor (H10H cell line). Type of series: cell-based. As to conditions: H10H cell line; for Emax: HEK293, maximum average response at a single concentration, relative to glutamate ECMax. Background: Calcium assays in cells follow changes in intracellular calcium, usually with a dye or a luminescent sensor.

The next series addresses T2, human mGluR5 receptor (Homo sapiens, UniProt P41594).
T2 construct: expressed in transfected cells; host or cells: HEK-293
The series can be described thus: Functional Assay 1: intracellular Ca2+ mobilization, positive allosteric modulation of glutamate EC20 response. Type of series: cell-based. The settings on record: for Emax: maximum % effect relative to glutamate ECMax.

For series [3], the system named is amphetamine-induced hyperlocomotion. The series can be described thus: Rat hyperlocomotion assay (reversal of amphetamine-induced hyperlocomotion). Type of series: in vivo. As to conditions: male Sprague-Dawley rats; 3.0, 10.0, 30.0, 56.6 mg/kg p.o.; amphetamine sulphate 1.0 mg/kg s.c.; FIG. 1. The protocol: Locomotor activity was assessed as mean distance traveled (cm) in standard 16×16 photocell testing chambers measuring 43.2 cm (Length)×43.2 cm (Width)×30.5 cm (Height) (Med Associates, St. Albans, Vt.). Animals were habituated to individual activity chambers for at least 30 min prior to drug administration. Following administration of drug or vehicle, activity was recorded for a 90 minute time period. Data was expressed as the mean (±SEM) distance traveled recorded in 5 min intervals over the test period. The data was analyzed using repeated measures analysis of variance (ANOVA) followed by post-hoc testing using Dunnett's test, when appropriate. A difference was considered significant when p≦05. […]
The animals were habituated in Smart Open Field locomotor activity test chambers (Hamilton-Kinder, San Diego, Calif.) with 16×16 photobeams to automatically record locomotor activity for 30 min and then dosed with vehicle or test compound. […] At 60 min, all rats were injected subcutaneously with 1 mg/kg amphetamine or vehicle and then monitored for an additional 60 min. Animals are monitored for a total of 120 minutes. Data are expressed as changes in ambulation defined as total number of beam breaks per 5 min periods.
The data for the dose-response studies were analyzed by a between-group analysis of variance. […]

By EC50 is commonly meant the concentration needed to bring the measured effect to its halfway point. As usually defined, the Emax is the maximal effect, on the per cent scale that the assay sets. In general, melting point refers to the temperature of the solid-liquid transition.

T2 sequence (P41594 21-1180 isoform P41594-2 limits assumed): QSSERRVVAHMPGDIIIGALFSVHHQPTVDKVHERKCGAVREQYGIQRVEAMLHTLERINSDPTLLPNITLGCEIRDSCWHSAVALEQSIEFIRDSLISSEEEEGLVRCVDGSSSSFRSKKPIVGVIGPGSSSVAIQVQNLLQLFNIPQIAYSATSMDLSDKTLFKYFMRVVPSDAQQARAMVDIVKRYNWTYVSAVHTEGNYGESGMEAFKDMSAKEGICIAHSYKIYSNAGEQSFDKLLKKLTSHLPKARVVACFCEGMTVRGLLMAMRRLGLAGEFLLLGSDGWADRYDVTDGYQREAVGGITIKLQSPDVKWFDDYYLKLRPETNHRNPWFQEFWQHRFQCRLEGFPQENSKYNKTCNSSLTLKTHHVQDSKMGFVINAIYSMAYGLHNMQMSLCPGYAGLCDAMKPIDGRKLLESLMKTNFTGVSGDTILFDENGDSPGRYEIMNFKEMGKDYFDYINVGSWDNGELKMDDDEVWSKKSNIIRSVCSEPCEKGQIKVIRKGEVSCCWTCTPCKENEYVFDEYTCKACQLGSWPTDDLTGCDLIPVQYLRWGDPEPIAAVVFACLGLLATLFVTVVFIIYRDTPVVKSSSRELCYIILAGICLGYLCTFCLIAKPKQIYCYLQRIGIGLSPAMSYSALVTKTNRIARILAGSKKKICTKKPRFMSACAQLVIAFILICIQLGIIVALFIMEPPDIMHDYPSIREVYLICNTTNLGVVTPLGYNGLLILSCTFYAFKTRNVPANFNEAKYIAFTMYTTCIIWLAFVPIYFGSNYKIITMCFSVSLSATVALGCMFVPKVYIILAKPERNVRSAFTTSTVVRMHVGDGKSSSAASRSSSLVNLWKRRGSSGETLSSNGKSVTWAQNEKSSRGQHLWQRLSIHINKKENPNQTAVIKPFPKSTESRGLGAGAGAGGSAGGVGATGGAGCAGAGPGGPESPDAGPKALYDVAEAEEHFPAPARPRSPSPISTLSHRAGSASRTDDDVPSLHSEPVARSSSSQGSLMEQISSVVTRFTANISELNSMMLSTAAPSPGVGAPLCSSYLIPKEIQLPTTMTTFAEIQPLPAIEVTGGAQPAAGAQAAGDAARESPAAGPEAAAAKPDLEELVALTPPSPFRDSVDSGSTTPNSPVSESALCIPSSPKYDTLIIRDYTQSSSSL
T1 sequence (P41594 21-1180 isoform P41594-2 limits assumed): as above
Description for human mGluR5 receptor: HEK-293 cells were stable transfected with human mGluR5a cDNA in expression vector pcDNA4/TO. For Assay 1, these human mGluR5 receptor over-expressing HEK-293 cells were grown at a density of 40,000 cells/well in PDL-coated 384-well plates. The following day, cells were preloaded with the calcium-sensing dye Fluo-4 AM and various concentrations of test compound were added in the absence of exogenous glutamate to test for direct agonist activity. Shortly (2.5 min) thereafter, an EC20 equivalent of glutamate (˜0.2 μM) was added. The fluorescence signal was monitored using a Hamamatsu Functional Drug Screening System (FDSS) fluorescence plate reader following the addition of compound alone (direct agonist response) and then the further addition of an EC20 of glutamate (positive allosteric modulation response). The pEC50 was defined as the negative log of the test compound concentration which produced an increase in the glutamate EC20-mediated response that was 50% of maximum. Individual amplitudes were expressed as % effect by multiplying each amplitude by 100 and then dividing the product by the mean of the amplitudes derived from the glutamate ECMax-treated wells. Emax values reported in this application are defined as the maximum % effect obtained in a concentration-response curve.

On to `O=C1c2sc(COc3ccccc3)nc2CCN1c1ccc(F)cc1` [Compound 9, 5-(4-fluorophenyl)-6,7-dihydro-2-(phenoxymethyl)-thiazolo[5,4-c]pyridin-4(5H)-one], for which, on human mGluR5a receptor [1], the EC50 is 0.112 µM and the maximal response (Emax) was 79%.

`C[C@@H](N1CCc2nc(COc3ccccc3)sc2C1=O)C(C)(C)C` [Compound 35, 6,7-dihydro-2-(phenoxymethyl)-5-[(1R)-1,2,2-trimethylpropyl]-thiazolo[5,4-c]pyridin-4(5H)-one]: on human mGluR5a receptor [1], the EC50 was 0.794 µM and the Emax was 60%.

`O=C1c2sc(OCc3cccc(F)c3)nc2CCN1c1cccc(C(F)(F)F)c1` [Compound 30, 2-[(3-fluorophenyl)methoxy]-6,7-dihydro-5-[3-(trifluoromethyl)phenyl]-thiazolo[5,4-c]pyridin-4(5H)-one]: the melting point is 108.2 to 108.9 °C. In addition, at human mGluR5a receptor [1], the EC50 is 0.933 µM and the Emax was 58%.

Turning to `C[C@@H](N1CCc2nc(OCc3cccc(F)c3)sc2C1=O)C(C)(C)C` [Compound 77, 2-[(3-fluorophenyl)methoxy]-6,7-dihydro-5-[(1R)-1,2,2-trimethylpropyl]-thiazolo[5,4-c]pyridin-4(5H)-one], at human mGluR5a receptor [1], the half-maximal effective concentration (EC50) is > 30.2 µM and the maximal effect (Emax) was determined as 21%.

In turn, `C[C@@H](N1CCc2nc(COc3cccc(F)c3)sc2C1=O)C(C)(C)C` [Compound 7, 2-[(3-fluorophenoxy)methyl]-6,7-dihydro-5-[(1R)-1,2,2-trimethylpropyl]-thiazolo[5,4-c]pyridin-4(5H)-one] showed a melting point of 87.2 to 87.8 °C. In addition, at human mGluR5a receptor [1], the 50% effective concentration (EC50) was 1.41 µM and the Emax worked out at 57%.

Take `O=C1c2sc(COc3cccc(F)c3)nc2CCN1c1ccc(F)cc1F` [Compound 28, 5-(2,4-difluorophenyl)-2-[(3-fluorophenoxy)methyl]-6,7-dihydro-thiazolo[5,4-c]pyridin-4(5H)-one]: at human mGluR5a receptor [1], the concentration giving a half-maximal response (EC50) is 0.0851 µM and the Emax was found to be 63%.

`O=C1c2sc(OCc3ccccc3F)nc2CCN1c1ccc(F)cc1F` [Compound 18, 5-(2,4-difluorophenyl)-2-[(2-fluorophenyl)methoxy]-6,7-dihydro-thiazolo[5,4-c]pyridin-4(5H)-one] gave a melting point of 78.9 to 80.7 °C. The compound further showed a 50% effective concentration (EC50) at human mGluR5a receptor [2] (glutamate EC20) of 0.427 µM. This compound yielded an Emax on human mGluR5a receptor [2] of 72%. The response on human mGluR5 receptor (human mGluR5 over-expressing HEK-293 cells, glutamate EC20 (~0.2 μM), updated value) was half-maximal at 0.617 µM (EC50). At human mGluR5 receptor, this compound yielded an Emax of 76%. This compound showed an EC50 on human mGluR5 receptor (original value, which was updated as compound was further tested) of 0.513 µM.

Take `CN1CCc2nc(COc3ccccc3)sc2C1=O` [Compound 8, 6,7-dihydro-5-methyl-2-(phenoxymethyl)-thiazolo[5,4-c]pyridin-4(5H)-one]: the “reversal of amphetamine-induced hyperlocomotion” value in series [3] is reported as “dose-dependent reversal effects”. In addition, the Emax worked out at 77% at human mGluR5a receptor [2] and 88% at human mGluR5 receptor.
